According to ChEMBL document CHEMBL5331138, “Potent, Selective, and Membrane Permeable 2-Amino-4-Substituted Pyridine-Based Neuronal Nitric Oxide Synthase Inhibitors” (J Med Chem, 2023):

Key:
[1] = molecular target: T1, Nitric oxide synthase 3 (Homo sapiens, UniProt P29474); assay: Inhibition of human eNOS expressed in Escherichia coli using human oxyhemoglobin by hemoglobin (Hb) NO capture assay
T1 sequence (P29474 whole entry): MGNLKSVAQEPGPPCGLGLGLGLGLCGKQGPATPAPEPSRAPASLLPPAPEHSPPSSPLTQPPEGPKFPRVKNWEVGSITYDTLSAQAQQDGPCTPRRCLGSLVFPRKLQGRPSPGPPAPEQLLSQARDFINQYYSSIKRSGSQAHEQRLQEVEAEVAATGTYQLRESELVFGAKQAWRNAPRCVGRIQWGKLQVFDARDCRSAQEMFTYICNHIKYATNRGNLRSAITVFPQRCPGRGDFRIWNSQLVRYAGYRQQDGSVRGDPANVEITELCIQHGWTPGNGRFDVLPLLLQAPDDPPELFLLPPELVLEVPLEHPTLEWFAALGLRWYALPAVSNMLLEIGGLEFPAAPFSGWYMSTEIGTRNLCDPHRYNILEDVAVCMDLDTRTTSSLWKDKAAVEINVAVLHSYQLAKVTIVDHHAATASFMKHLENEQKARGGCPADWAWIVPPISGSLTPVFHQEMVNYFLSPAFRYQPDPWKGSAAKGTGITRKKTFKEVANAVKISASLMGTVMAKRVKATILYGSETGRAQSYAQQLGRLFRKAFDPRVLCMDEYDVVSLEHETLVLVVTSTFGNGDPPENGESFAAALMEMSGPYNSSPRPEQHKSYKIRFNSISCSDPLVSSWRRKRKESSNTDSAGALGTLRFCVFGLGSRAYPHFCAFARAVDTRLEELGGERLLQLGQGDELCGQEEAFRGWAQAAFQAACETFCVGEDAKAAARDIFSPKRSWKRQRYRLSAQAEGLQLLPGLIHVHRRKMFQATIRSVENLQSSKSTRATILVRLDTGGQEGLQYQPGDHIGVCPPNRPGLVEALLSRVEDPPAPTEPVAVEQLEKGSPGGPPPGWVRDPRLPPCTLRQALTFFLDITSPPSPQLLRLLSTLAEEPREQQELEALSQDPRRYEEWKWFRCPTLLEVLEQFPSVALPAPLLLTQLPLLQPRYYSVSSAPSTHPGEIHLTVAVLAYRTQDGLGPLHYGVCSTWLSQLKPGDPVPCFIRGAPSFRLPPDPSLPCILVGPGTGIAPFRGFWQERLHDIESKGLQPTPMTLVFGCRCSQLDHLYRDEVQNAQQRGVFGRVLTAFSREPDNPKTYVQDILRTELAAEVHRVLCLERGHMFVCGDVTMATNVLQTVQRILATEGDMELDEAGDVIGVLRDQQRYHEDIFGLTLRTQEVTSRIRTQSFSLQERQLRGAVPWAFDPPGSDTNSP

[2] = molecular target: Nitric oxide synthase, inducible (Homo sapiens, UniProt P35228)
Sequence of Nitric oxide synthase, inducible (P35228 whole entry): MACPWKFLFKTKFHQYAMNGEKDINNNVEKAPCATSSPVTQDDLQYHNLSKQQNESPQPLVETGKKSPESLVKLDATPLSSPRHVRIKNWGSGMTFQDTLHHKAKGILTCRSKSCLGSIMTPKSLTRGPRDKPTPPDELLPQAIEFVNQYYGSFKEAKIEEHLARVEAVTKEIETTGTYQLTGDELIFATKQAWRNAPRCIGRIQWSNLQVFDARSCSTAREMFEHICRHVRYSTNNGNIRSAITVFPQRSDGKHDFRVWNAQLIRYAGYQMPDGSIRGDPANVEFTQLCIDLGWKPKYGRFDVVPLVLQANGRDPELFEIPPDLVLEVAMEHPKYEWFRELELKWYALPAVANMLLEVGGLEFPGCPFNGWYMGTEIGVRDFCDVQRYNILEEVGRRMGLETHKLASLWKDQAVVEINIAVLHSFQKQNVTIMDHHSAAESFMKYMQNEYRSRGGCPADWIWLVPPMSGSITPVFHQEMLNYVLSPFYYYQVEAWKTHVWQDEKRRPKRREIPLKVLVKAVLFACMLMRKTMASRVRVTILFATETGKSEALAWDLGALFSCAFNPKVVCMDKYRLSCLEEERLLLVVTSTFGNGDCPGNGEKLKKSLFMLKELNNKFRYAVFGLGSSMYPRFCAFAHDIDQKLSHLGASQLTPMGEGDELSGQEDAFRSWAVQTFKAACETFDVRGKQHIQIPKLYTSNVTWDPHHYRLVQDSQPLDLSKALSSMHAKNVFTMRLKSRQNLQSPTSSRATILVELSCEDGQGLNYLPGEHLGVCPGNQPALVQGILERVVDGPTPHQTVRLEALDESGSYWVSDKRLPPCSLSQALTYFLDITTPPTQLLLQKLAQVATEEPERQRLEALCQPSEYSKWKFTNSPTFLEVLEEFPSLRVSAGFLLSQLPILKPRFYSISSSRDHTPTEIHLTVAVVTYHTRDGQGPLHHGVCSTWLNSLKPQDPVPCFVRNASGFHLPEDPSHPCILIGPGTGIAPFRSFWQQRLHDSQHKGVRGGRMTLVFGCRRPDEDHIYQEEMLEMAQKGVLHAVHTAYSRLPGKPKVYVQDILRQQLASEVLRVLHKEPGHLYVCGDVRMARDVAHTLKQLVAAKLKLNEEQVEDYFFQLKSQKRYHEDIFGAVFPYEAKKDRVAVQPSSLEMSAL
Description: Inhibition of human iNOS expressed in Escherichia coli using human oxyhemoglobin by hemoglobin (Hb) NO capture assay

[3] = molecular target: Nitric oxide synthase 1 (Homo sapiens, UniProt P29475)
Sequence of Nitric oxide synthase 1 (Homo sapiens, UniProt P29475) (P29475 whole entry): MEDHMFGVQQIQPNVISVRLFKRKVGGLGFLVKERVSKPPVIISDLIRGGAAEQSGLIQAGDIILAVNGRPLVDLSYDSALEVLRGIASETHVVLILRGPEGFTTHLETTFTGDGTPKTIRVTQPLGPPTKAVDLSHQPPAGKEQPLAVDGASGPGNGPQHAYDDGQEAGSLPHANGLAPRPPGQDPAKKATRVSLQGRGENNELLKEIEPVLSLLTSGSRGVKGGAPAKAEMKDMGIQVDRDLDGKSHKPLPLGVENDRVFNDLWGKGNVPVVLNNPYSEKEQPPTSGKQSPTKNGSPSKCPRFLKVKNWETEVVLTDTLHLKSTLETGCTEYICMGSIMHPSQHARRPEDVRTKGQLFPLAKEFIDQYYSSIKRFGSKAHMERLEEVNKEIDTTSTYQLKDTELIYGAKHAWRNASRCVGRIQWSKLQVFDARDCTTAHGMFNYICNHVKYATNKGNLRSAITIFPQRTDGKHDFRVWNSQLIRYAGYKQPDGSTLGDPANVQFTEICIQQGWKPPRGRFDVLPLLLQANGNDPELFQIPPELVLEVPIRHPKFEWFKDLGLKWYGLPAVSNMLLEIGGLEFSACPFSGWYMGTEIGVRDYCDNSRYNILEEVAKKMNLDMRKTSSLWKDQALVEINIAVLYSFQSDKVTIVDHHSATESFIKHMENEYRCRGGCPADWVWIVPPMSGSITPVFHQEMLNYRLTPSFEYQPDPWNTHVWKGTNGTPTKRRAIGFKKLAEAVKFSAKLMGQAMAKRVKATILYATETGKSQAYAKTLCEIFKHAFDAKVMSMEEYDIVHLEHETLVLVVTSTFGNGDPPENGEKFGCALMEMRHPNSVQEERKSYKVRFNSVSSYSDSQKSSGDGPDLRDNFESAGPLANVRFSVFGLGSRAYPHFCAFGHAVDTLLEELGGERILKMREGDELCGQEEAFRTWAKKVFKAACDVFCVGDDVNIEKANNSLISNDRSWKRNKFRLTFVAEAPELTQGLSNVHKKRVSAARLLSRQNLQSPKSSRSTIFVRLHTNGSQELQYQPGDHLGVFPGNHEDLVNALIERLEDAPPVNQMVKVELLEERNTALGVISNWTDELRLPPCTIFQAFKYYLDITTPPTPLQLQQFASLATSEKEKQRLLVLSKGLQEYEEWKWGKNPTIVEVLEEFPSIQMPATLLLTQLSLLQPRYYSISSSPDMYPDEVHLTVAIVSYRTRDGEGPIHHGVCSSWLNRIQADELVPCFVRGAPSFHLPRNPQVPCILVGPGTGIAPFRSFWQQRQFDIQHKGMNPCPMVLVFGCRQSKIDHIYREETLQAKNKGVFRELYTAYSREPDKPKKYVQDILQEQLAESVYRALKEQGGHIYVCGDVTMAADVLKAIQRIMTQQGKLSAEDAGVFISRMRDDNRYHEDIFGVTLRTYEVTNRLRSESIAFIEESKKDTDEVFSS
Description: Inhibition of human nNOS expressed in Escherichia coli using human oxyhemoglobin by hemoglobin (Hb) NO capture assay

[4] = mouse, microsomes
[5] = human, microsomes
[6] = molecular target: Nitric oxide synthase 1 (Rattus norvegicus, UniProt P29476)
Sequence of Nitric oxide synthase 1 (Rattus norvegicus, UniProt P29476) (P29476 whole entry): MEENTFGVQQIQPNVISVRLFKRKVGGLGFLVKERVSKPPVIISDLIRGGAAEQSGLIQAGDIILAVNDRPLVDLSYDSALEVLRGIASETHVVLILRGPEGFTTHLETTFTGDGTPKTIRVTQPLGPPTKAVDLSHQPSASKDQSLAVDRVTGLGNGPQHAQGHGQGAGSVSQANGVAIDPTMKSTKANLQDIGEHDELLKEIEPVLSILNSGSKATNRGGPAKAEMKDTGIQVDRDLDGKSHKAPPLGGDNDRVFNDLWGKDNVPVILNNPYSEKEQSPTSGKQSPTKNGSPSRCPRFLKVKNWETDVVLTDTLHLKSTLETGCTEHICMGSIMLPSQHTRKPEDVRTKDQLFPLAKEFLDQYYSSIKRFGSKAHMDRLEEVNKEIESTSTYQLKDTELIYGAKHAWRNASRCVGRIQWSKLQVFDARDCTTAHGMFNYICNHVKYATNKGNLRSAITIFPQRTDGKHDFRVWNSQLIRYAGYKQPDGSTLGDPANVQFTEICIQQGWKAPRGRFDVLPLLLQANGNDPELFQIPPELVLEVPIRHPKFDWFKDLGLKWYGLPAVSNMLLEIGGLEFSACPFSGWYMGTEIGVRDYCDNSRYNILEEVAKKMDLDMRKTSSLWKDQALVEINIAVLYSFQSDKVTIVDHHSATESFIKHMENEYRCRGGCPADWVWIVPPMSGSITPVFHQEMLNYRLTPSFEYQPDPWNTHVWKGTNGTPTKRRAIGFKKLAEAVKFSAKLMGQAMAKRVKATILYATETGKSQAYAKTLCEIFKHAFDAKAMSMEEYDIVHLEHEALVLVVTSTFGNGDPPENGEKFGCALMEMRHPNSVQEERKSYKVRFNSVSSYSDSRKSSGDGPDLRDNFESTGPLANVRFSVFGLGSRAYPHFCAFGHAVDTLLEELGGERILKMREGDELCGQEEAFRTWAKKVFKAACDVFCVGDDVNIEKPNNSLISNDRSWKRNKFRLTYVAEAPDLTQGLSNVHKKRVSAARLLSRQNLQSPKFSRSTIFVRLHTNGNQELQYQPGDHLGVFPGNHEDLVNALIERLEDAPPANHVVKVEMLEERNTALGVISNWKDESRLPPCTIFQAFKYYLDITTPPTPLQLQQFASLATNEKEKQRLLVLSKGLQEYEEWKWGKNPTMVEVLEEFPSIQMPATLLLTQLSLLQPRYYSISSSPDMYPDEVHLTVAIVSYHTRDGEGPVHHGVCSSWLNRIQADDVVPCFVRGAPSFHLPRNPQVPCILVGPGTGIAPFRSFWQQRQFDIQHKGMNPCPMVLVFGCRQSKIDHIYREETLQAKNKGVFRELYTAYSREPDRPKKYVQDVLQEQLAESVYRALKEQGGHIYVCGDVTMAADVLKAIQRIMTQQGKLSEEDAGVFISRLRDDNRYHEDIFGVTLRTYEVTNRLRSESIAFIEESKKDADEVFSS
Description: Inhibition of rat nNOS expressed in Escherichia coli using human oxyhemoglobin by hemoglobin (Hb) NO capture assay

## Cc1cc(N)nc(CCc2cc(CCN3CCN(C)CC3)cc(F)c2F)c1
[1]
  Ki: 12.4 µM

## Cc1cc(N)nc(C#Cc2cc(CN(C)C)cc(F)c2F)c1.Cl.Cl
[2]
  Ki: 88.7 µM
[3]
  Ki: 0.319 µM
[1]
  Ki: 7.68 µM

## CCN(CC)CCc1cc(F)c(F)c(CCc2cc(C)cc(N)n2)c1.Cl.Cl
[1]
  Ki: 46.4 µM

## Cc1cc(N)nc(CCc2cc(CCN(C)C)cc(F)c2F)c1.Cl.Cl
[4]
  t1/2: 29 min
[5]
  t1/2: > 60 min

## Cc1cc(N)nc(C#Cc2cc(CCN(C)C)cc(F)c2F)c1
[2]
  Ki: 48.8 µM
[3]
  Ki: 0.328 µM
[1]
  Ki: 18.7 µM

## CN(C)CCc1cc(F)c(F)c(CCc2cc(C(F)(F)F)cc(N)n2)c1.Cl.Cl
[1]
  Ki: 68.3 µM

## CN(C)CCc1cc(F)c(F)c(CCc2cccc(N)n2)c1
[3]
  Ki: 1.64 µM
[1]
  Ki: 61.4 µM
[6]
  Ki: 1.11 µM

## Cc1cc(N)nc(CCc2cc(CCN)cc(F)c2F)c1.Cl.Cl
[2]
  Ki: 1.72 µM
[1]
  Ki: 77.2 µM

## Cc1cc(N)nc(CCc2cc(CC[C@H]3CCN3C)cc(F)c2F)c1.Cl.Cl
[4]
  t1/2: 16 min
[5]
  t1/2: > 60 min

## Cc1cc(N)nc(/C=C/c2cc(CCN(C)C)cc(F)c2F)c1
[2]
  Ki: 11.9 µM
[3]
  Ki: 0.048 µM
[1]
  Ki: 14.3 µM
